In ChEMBL document CHEMBL1201862, “PubChem BioAssay data set” (2004):
Calls of active or inactive are those of the source.

How the values were obtained:
[1] = biological target: T1, Corticotropin-releasing factor receptor 2/Corticotropin-releasing factor-binding protein (Homo sapiens, UniProt P24387+Q13324); assay: activators of CRF receptor 2 with binding protein – uHTS hits, confirmation (AID 602473); assay type: functional; settings: read-out: EC50_Mean
T1 sequence (Q13324 whole entry): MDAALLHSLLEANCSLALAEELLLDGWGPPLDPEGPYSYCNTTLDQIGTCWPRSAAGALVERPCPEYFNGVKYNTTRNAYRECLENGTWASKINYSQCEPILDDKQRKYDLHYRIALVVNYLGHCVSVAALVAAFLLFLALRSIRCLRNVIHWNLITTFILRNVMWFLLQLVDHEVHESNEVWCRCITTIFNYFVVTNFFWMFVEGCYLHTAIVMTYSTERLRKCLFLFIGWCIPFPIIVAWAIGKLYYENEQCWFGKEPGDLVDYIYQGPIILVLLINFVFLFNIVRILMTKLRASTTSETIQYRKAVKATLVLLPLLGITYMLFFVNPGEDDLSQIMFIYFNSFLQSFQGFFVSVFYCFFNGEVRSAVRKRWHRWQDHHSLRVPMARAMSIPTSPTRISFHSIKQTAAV
T1 sequence (P24387 whole entry): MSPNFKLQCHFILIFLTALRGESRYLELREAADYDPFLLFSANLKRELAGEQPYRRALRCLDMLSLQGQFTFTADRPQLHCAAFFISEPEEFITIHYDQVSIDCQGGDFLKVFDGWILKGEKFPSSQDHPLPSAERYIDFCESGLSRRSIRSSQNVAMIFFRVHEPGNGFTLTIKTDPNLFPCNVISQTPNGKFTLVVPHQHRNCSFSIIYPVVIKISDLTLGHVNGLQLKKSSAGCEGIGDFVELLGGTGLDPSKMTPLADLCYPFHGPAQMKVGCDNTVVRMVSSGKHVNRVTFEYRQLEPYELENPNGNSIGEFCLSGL

[2] = biological target: T2, DNA repair and recombination protein RAD54-like (Homo sapiens, UniProt Q92698); assay: RAD54 Holliday junction migration blockers – biochemical, fluorescence, cherry-picked samples, dose series, confirmation (AID 651657); assay type: functional
T2 sequence (Q92698 whole entry): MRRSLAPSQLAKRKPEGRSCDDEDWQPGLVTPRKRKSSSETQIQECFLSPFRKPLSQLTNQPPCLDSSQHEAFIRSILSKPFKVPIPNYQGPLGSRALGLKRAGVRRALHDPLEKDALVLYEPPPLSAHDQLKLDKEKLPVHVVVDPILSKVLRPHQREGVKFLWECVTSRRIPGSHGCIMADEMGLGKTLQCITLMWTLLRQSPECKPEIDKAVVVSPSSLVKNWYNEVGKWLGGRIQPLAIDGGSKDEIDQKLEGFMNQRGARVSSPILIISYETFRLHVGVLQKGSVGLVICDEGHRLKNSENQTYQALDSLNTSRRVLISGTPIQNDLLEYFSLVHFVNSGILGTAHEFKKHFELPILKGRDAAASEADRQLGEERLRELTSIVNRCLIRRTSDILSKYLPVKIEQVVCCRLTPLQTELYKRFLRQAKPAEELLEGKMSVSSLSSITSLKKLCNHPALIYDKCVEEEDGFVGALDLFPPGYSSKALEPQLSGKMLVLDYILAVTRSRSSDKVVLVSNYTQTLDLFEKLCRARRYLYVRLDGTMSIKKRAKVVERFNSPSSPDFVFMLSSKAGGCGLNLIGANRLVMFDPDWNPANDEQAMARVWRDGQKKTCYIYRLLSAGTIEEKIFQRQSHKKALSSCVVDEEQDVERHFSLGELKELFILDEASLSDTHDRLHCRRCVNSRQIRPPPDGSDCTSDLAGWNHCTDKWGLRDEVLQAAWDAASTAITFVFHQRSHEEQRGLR

[3] = biological target: T3, Ubiquitin-conjugating enzyme E2 N (Homo sapiens, UniProt P61088); assay type: functional;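 also: Dose-response confirmation in a TR-FRET assay detecting UBC13-driven polyubiquitin chain formation, inhibition measured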
T3 sequence (P61088 whole entry): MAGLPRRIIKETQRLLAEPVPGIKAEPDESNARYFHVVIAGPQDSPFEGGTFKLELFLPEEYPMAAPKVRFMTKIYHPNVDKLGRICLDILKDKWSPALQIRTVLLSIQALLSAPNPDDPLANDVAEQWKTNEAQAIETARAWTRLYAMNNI

[4] = biological target: T4, Endoribonuclease toxin MazF (Escherichia coli K-12, UniProt P0AE70); assay: activation of MazEF endoribonuclease cleavage – biochemical, fluorescence, single-stranded RNA substrate, uHTS hits, dose response (AID 588481); assay type: functional
T4 sequence (P0AE70 whole entry): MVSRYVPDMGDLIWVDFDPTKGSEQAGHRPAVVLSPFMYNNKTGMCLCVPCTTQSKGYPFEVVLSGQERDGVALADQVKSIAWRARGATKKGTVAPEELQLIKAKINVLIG

[5] = biological target: T4, Endoribonuclease toxin MazF; assay: substrate-only fluorescence increase artefacts – biochemical, single-stranded RNase substrate, counter-screen for MazEF activator project, dose response (AID 588502); assay type: functional
[6] = biological target: DNA dC->dU-editing enzyme APOBEC-3G (Homo sapiens, UniProt Q9HC16); assay: Dose Response confirmation of small molecule APOBEC3G DNA Deaminase Inhibitors via a fluorescence-based single-stranded DNA deaminase assay. [Related pubchem assays (depositor defined):AID493012, AID493028]; assay type: functional
DNA dC->dU-editing enzyme APOBEC-3G, sequence (Q9HC16 whole entry): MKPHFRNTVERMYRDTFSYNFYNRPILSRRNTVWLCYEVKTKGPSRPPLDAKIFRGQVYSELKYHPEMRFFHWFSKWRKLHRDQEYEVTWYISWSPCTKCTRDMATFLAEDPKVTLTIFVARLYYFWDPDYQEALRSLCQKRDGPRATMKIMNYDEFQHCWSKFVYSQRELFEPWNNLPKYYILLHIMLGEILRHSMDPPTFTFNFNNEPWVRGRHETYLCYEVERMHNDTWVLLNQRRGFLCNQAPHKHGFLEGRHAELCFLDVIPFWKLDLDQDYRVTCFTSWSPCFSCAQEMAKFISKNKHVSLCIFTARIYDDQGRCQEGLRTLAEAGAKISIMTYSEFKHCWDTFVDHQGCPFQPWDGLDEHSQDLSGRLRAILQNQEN

[7] = Luminescence Cell-Based Dose Confirmation HTS to Identify Activators of 5'UTR Stem-Loop Driven Alpha-Synuclein mRNA Translation in H4 Neuroglioblastoma Cells. [Related pubchem assays: 1829 (Project Summary), 1814 (Primary HTS)]; assay type: functional
[8] = Luminescence Cell-Based Dose Response HTS to Identify Activators of Luciferase Translation or Activity in H4 […] Cells. [Related pubchem assays: 1829 (Project Summary), 1814 (Primary HTS)]; assay type: functional
[9] = test system: H4; assay: Luminescence Cell-Based Dose Response HTS to Identify Activators of 5'UTR Stem-Loop Driven Prion Protein mRNA Translation in H4 Neuroglioblastoma Cells. [Related pubchem assays: 1829 (Project Summary), 1814 (Primary HTS)]; assay type: functional; settings: Homo sapiens
[10] = cells; assay type: functional, cell-based
[11] = cells; assay type: functional, cell-based; remark: listed apart in the source
[12] = test system: H9c2; assay: cells; assay type: functional, cell-based; settings: Rattus norvegicus, H9c2, Myocardium;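 also: confirmatory concentration-response retest of ultra-high-throughput screening hits for modulation of myocardial damage; cell death induced by hydrogen peroxide oxidative stress; compound pretreatment for 60 min then peroxide exposure for 2 h; potency is for protecting the cells against peroxide damage rather than for killing them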
[13] = blockers of HIV-1 envelope-mediated cell-cell fusion – cherry-pick, dose response (AID 652057); assay type: functional, cell-based
[14] = blockers of HIV-1 ZM109 envelope-driven cell-cell fusion – HeLa effector, CEM target cells, luciferase, cherry-pick, dose response (AID 652058); assay type: functional, cell-based;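 also: luciferase signal from HIV-1 Env mediated cell-cell fusion of effector and target cells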
[15] = off-target signal loss in HeLa-CEM21 co-culture – HeLa F-luc CTL cells, cherry-picked, counter-screen for HIV-1 Env fusion inhibitor project, dose response (AID 652040); assay type: functional, cell-based;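 also: potency for signal decrease marking cytotoxic or nonspecific inhibition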
[16] = HIV-1 AD8 envelope cell-cell fusion blockers – cherry-pick, dose response (AID 652062); assay type: functional, cell-based;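 also: luciferase signal from cell-cell fusion driven by HIV-1 clade B AD8 Env; potency is for inhibitors of fusion seen as a drop in luminescence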
[17] = THP-1 cell cytotoxicity, dose response, cytotoxicity control for non-replicating M. tuberculosis project (AID 489025); assay type: functional
[18] = cells; assay type: functional
[19] = biological target: T5, Leucine aminopeptidase (Plasmodium falciparum 3D7, UniProt Q8IL11); assay: P. falciparum M17LAP inhibitors, primary screen, biochemical, fluorogenic H-Leu-NHMec substrate, 1536-well (AID 1619); assay type: functional
T5 sequence (Q8IL11 whole entry): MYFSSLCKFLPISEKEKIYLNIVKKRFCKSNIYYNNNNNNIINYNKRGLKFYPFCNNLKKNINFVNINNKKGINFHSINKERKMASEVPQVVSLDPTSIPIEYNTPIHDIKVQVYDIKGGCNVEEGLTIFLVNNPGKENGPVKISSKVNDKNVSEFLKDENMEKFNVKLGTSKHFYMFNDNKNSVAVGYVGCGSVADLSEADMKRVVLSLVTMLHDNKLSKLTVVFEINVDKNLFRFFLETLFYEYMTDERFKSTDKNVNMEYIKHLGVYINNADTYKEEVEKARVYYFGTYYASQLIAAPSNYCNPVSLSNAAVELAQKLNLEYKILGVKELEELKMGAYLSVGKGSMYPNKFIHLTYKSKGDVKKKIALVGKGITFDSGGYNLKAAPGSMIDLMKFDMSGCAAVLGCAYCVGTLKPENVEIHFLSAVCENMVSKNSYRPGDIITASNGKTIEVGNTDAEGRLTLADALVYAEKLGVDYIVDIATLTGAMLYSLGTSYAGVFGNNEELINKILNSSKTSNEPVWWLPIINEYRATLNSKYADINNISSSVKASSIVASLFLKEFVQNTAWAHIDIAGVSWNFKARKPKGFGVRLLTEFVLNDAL

[20] = biological target: Heat shock protein HSP 90-alpha (Homo sapiens, UniProt P07900); assay type: functional, organism-based
[21] = Trypanosoma cruzi growth suppression in host cells – NIH3T3 host cells, beta-gal luminescence, confirmation (AID 2044); assay type: functional, cell-based;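 also: intracellular parasites grown in NIH/3T3 mouse fibroblasts as host cells; luminescent beta-galactosidase reporter signal from transgenic T. cruzi replicating inside host cells; inhibitors lower the luminescence signal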
[22] = NIH3T3 cell viability loss – ATP luminescence, mouse fibroblasts, counter-screen, dose response (AID 2010); assay type: functional, cell-based;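 also: cells exposed to compound for about 90 hours before reading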
[23] = biological target: T6, DNA repair protein RAD52 homolog (Homo sapiens, UniProt P43351); assay type: functional, biochemical
T6 sequence (P43351 whole entry): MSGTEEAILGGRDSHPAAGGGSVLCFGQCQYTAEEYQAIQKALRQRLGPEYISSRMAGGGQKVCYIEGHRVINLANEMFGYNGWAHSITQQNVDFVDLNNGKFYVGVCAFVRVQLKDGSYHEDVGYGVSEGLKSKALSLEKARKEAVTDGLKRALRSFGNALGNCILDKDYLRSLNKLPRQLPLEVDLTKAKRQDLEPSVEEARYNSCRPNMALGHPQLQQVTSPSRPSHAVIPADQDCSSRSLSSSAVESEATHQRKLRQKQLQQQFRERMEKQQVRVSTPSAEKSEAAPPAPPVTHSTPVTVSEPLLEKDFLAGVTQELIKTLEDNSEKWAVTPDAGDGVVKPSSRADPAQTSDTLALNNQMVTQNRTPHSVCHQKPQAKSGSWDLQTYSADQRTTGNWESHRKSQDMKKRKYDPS

COC(=O)c1c(NC(=O)c2ccco2)sc2c1CCN(C(C)C)C2
EC50 [1]: > 53 µM (inactive)
AC50 [2]: 25.4 µM (active)

Cc1ccc(C(=O)N/C(=C/c2ccc(-c3cccc([N+](=O)[O-])c3)o2)C(=O)NCCCN(C)C)cc1
IC50 [3]: > 20 µM (inactive)

Cc1c(C(=O)Nc2ccc3c(c2)OCO3)sc2nc(-c3ccccc3)cn12
EC50 [4]: > 99 µM (inactive)
EC50 [5]: > 99 µM (inactive)

COc1ccccc1NS(=O)(=O)c1cc(NC(=O)c2cccs2)ccc1N1CCCC1
IC50 [6]: 37.1 µM (active)

O=C(c1ccc2c(c1)ncn2C1CCCCC1)N1CCC2(CC1)OCCO2
EC50 [7]: > 120 µM (not active)
EC50 [8]: 6.5 µM (active)
EC50 [9]: > 120 µM (not active)

CN(C)C(CNC(=O)CCCN1C(=O)c2cccc3cccc(c23)C1=O)c1ccccc1 (centres undefined)
AC50 [2]: 43.4 µM (active)

C=CCn1c(S)nnc1-c1ccc2ncccc2c1
IC50 [6]: 11.9 µM (active)

CCOc1ccc2nc(NC(=S)N(C)C)sc2c1
IC50 [6]: 62.4 µM (active)

Cc1cc2ccc3ccccc3c2cc1CN(C)C
EC50 [10]: > 350 µM (not active)
EC50 [11]: > 350 µM (not active)
AC50 [2]: 38.3 µM (active)

COc1ccc(-c2cc(=O)oc3c(C)c(O)c(CN(C)C)cc23)cc1
IC50 [12]: > 79 µM (inactive)
AC50 [13]: 13 µM (active)
AC50 [14]: 18.1 µM (active)
AC50 [15]: 7.97 µM (active)
AC50 [16]: 17.4 µM (active)

N=C(Cc1cccs1)NOC(=O)COc1ccccc1Cl
EC50 [7]: 7.6 µM (active)
EC50 [8]: 50.4 µM (active)
EC50 [9]: 46 µM (active)

Nc1nc2ccccc2n1C(=O)c1ccc(F)cc1
CC50 [17]: > 40 µM (active)
IC50 [18]: 9.58 µM (active)

Cc1ccccc1C(=O)NCC(=O)NNC(=S)NC(=O)c1ccccc1
IC50 [19]: 47.4 µM (active)
IC50 [3]: > 20 µM (inactive)

CCOC(=O)c1ccc(N2C(=O)CC(N3CCC(C(=O)OCC)CC3)C2=O)cc1 (centres undefined)
AC50 [20]: 7.24 µM (active)

Sc1nc2ccccc2c2nc(-c3cccnc3)nn12
IC50 [3]: > 20 µM (inactive)

CCC(CC)COC(=O)C(C#N)c1nc2ccccc2nc1N1CCN(CC)CC1 (centres undefined)
EC50 [21]: 4.05 µM (active)
EC50 [22]: > 60 µM (not active)
CC50 [17]: 26.2 µM (active)
IC50 [18]: 17.9 µM (active)

COC(=O)C1=C(c2ccc(F)cc2OCc2ccccc2)C[C@@H]2CC[C@H]1N2C(=O)NC1CCN(Cc2ccccc2)CC1
IC50 [3]: > 20 µM (inactive)

C[C@@H](CN1CCC[C@H]1CN1C(N)=NC[C@@H]1Cc1ccccc1)N1C[C@@H](Cc2ccccc2)N(CCCC2CCCC2)C1=N
IC50 [3]: > 20 µM (inactive)

COC(=O)[C@@]1(C)[C@H]2C(=O)N(Cc3ccccc3)C(=O)[C@H]2[C@H]2CN=C(SCC3CC3)N21
AC50 [13]: 2.13 µM (active)
AC50 [14]: 2.3 µM (active)
AC50 [15]: 2.95 µM (active)
AC50 [16]: 7.31 µM (active)

CC(=O)Nc1cccc(NC(=N)Nc2nc(C)cc(C)n2)c1
AC50 [23]: 18.8 µM (active)

Cn1cc(Cl)c(C(=O)N/N=C/c2ccc3c4c(cccc24)CC3)n1
EC50 [4]: > 99 µM (inactive)
EC50 [5]: > 99 µM (inactive)

CC1(C(=O)N/N=C/c2ccc3c(c2)OCO3)CC1(Br)Br (centres undefined)
AC50 [13]: 5.4 µM (active)
AC50 [14]: 4.12 µM (active)
AC50 [15]: 7.57 µM (active)
AC50 [16]: 7.47 µM (active)

C[C@]12CC[C@H](OC(=O)[C@@H](N)CCCCN)C[C@@H]1CC[C@@H]1[C@@H]2CC[C@@]2(C)[C@H]1CC[C@]2(C)O
AC50 [23]: 1.93 µM (active)

CN1CCc2c(sc(N)c2C(=O)O)C1
AC50 [23]: 11.7 µM (active)

CC(C)=CCc1c2c(c3occ(-c4ccc(O)c(O)c4)c(=O)c3c1O)C=CC(C)(C)O2 [POMIFERIN]
AC50 [20]: 13.3 µM (active)
